Laboratory results published in patent US12649733B2, “3,6-diamino-pyridazin-3-yl derivatives, pharmaceutical compositions containing them and their uses as pro-apoptotic agents” (LES LABORATOIRES SERVIER, priority 2019, dated 2026).

What was measured:
MOLT-4 cells = experiment: MOLT-4 cell viability, MTT assay; assay type: cell-based; details: Homo sapiens, MOLT-4, 48 h, 48 h exposure
How it was run: (§1)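 Cells grown in RPMI 1640 with 10% heat-inactivated FBS at 37° C, 5% CO2, exposed 48 h to nine 3.16-fold serial compound dilutions in triplicate. MTT added for 4 h, SDS/HCl solubilisation overnight, absorbance at 540 nm; IC50 by four-parameter fit.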

BCLXL = BCLXL (Homo sapiens, UniProt Q07817, V10N/V9A); experiment: Fluorescence polarisation assay (PUMA-based probe displacement); assay type: binding; note: 20 nM protein, 10 nM fluorescent probe
H146 cells = experiment: H146 cell viability, MTT assay; assay type: cell-based; details: Homo sapiens, NCI-H146, 48 h, 48 h exposure
How it was run: as §1

Bcl-xL protein = molecular target: T1, Bcl-xL protein (Homo sapiens, UniProt Q07817, N197C); experiment: Fluorescence quenching assay (PUMA peptide displacement); assay type: binding; details: 1 nM protein, 400 nM peptide, 2 hours at 23° C.; KI determined from IC50
T1 construct: (2-197)[N197C]; His-His (two His8 stretches joined by a Gly/Ala/Ser/Thr linker)
Text: Fluorescence quenching assay measures the change in fluorescence intensity of C-terminally Cy5-labeled BCL-xL protein, His-His-(EK)-hs ? (2-197)[N197C] (UniProtKB® primary accession number Q07817-1) having an amino acid sequence (SEQ ID:03): [[…] […] […] […] […]] which is linked in C-terminal region to the amino acid X which corresponds to a cysteine labeled on the sulfur with Sulfo-Cyanine5 from Lumiprobe GmbH catalogue number 13380, upon binding of a C-terminally labeled peptide derived from PUMA (UniProtKB® primary accession number Q9BXH1) having an aminoacid sequence (SEQ ID:04): [[…]] which is linked in C-terminal region to the amino acid X′ where X′ is cysteine labeled on the sulfur with TQ5WS from AAT Bioquest catalogue number 2079.
The addition of a compound which binds competitively to the same site as the peptide will result in an increase in the fluorescence intensity of the protein due to displacement of the fluorescence quencher.
An 11-point serial dilution of each compound was prepared in DMSO the final buffer conditions were 10 mM 4-(2-hydroxyethyl)-1-piperazineethanesulfonic acid [HEPES], 150 mM NaCl, 0.05% Tween 20, pH 7.4 and 5% DMSO. The final protein concentration in the assay was 1 nM with the peptide present at 400 nM. The experiments were incubated for 2 hours at 23° C. before fluorescence intensity was measured on a Biotek SynergyNeo plate reader (Excitation 620 nm, emission 680 nm). […] The KI values were determined from the IC50 values according to Cer et al, Nucleic Acids Res, 2009, Jul. 1: 37(WebServer issue): W441-W445.

T1 sequence (Q07817 2-197 N197C): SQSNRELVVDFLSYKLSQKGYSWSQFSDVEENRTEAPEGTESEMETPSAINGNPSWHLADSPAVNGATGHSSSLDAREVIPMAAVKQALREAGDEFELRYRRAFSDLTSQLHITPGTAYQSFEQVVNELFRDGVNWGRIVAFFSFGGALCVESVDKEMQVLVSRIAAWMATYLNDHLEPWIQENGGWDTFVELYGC
Chain of BCLXL (Q07817 with tags, fused parts or gaps V9A/V10N): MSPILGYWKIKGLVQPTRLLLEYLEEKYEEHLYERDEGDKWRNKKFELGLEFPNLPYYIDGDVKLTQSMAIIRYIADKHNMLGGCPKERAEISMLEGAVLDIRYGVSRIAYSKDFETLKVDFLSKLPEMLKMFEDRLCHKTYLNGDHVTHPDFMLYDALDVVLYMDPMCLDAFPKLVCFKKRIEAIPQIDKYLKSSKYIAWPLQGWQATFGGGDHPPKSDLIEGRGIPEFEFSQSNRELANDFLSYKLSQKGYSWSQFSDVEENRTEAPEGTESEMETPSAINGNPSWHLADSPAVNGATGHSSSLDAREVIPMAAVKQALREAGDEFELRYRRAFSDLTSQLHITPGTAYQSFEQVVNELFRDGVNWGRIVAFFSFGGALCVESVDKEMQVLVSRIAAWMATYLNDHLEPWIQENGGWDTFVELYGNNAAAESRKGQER

Row | SMILES | IC50 (MOLT-4 cells) [nM] | Ki (BCLXL) [nM] | IC50 (H146 cells) [nM] | Ki (Bcl-xL protein) [nM]
1 | C=Cc1sc(N(C)c2cc(C)c(Nc3nc4ccccc4s3)nn2)nc1C(=O)O [Example 106, 2-({6-[(1,3-benzothiazol-2-yl)amino]-5-methylpyridazin-3-yl}(methyl)amino)-5-ethenyl-1,3-thiazole-4-carboxylic acid] | > 15000 | 27 | > 15000 | –
2 | CNCCN(C)CCCCN(c1cc(C)c(Nc2nc3ccccc3s2)nn1)c1nc(C(=O)O)c(CCCOc2ccc(C#CCN(C)C)cc2F)s1 [Example 178, 2-[[6-(1,3-Benzothiazol-2-ylamino)-5-methyl-pyridazin-3-yl]-[4-[methyl-[2-(methylamino)ethyl]amino]butyl]amino]-5-[3-[4-[3-(dimethylamino)prop-1-ynyl]-2-fluoro-phenoxy]propyl]thiazole-4-carboxylic acid] | – | – | – | 0.0074
3 | Cc1cc(N(CCCCNCCN2CCCCC2)c2nc(C(=O)O)c(CCCOc3ccc(C#CCN(C)C)cc3F)s2)nnc1Nc1nc2ccccc2s1 [Example 179, 2-[[6-(1,3-Benzothiazol-2-ylamino)-5-methyl-pyridazin-3-yl]-[4-[2-(1-piperidyl)ethylamino]butyl]amino]-5-[3-[4-[3-(dimethylamino)prop-1-ynyl]-2-fluoro-phenoxy]propyl]thiazole-4-carboxylic acid] | – | – | – | 0.0068
4 | Cc1cc(N(CCCCNCCN2CCOCC2)c2nc(C(=O)O)c(CCCOc3ccc(C#CCN(C)C)cc3F)s2)nnc1Nc1nc2ccccc2s1 [Example 180, 2-[[6-(1,3-Benzothiazol-2-ylamino)-5-methyl-pyridazin-3-yl]-[4-(2-morpholinoethylamino)butyl]amino]-5-[3-[4-[3-(dimethylamino)prop-1-ynyl]-2-fluoro-phenoxy]propyl]thiazole-4-carboxylic acid] | – | – | – | 0.0052
5 | Cc1cc(N(CCCCNC2CCN(C)CC2)c2nc(C(=O)O)c(CCCOc3ccc(C#CCN(C)C)cc3F)s2)nnc1Nc1nc2ccccc2s1 [Example 181, 2-[[6-(1,3-Benzothiazol-2-ylamino)-5-methyl-pyridazin-3-yl]-[4-[(1-methyl-4-piperidyl)amino]butyl]amino]-5-[3-[4-[3-(dimethylamino)prop-1-ynyl]-2-fluoro-phenoxy]propyl]thiazole-4-carboxylic acid] | – | – | – | 0.0043
6 | CNCC#Cc1ccc(OCCCc2sc(N(C)c3cc(C(F)(F)F)c(Nc4nc5ccccc5s4)nn3)nc2C(=O)O)c(F)c1 [Example 209, 2-[[6-(1,3-Benzothiazol-2-ylamino)-5-(trifluoromethyl)pyridazin-3-yl]-methyl-amino]-5-[3-[2-fluoro-4-[3-(methylamino)prop-1-ynyl]phenoxy]propyl]thiazole-4-carboxylic acid] | – | – | – | 0.023
7 | Cc1cc(N(CCCCC[N+](C)(C)CCO)c2nc(C(=O)[O-])c(CCCOc3ccc(C#CCN(C)C)cc3F)s2)nnc1Nc1nc2ccccc2s1 [Example 226, 2-[[6-(1,3-Benzothiazol-2-ylamino)-5-methyl-pyridazin-3-yl]-[5-[2-hydroxyethyl(dimethyl)ammonio]pentyl]amino]-5-[3-[4-[3-(dimethylamino)prop-1-ynyl]-2-fluoro-phenoxy]propyl]thiazole-4-carboxylate] | 752 | – | – | 0.0053
8 | Cc1cc(N(CCCCC[N+](C)(C)CC(=O)O)c2nc(C(=O)[O-])c(CCCOc3ccc(C#CCN(C)C)cc3F)s2)nnc1Nc1nc2ccccc2s1 [Example 227, 2-[[6-(1,3-Benzothiazol-2-ylamino)-5-methyl-pyridazin-3-yl]-[5-[carboxymethyl(dimethyl)ammonio]pentyl]amino]-5-[3-[4-[3-(dimethylamino)prop-1-ynyl]-2-fluoro-phenoxy]propyl]thiazole-4-carboxylate] | 802 | – | – | 0.0035
9 | CNCC#Cc1ccc(OCCCc2sc(N(CCCC[N+](C)(C)C)c3cc(C)c(Nc4nc5ccccc5s4)nn3)nc2C(=O)O)c(F)c1 [Example 232, 2-[[6-(1,3-Benzothiazol-2-ylamino)-5-methyl-pyridazin-3-yl]-[4-(trimethylammonio)butyl]amino]-5-[3-[2-fluoro-4-[3-(methylamino)prop-1-ynyl]phenoxy]propyl]thiazole-4-carboxylate] | – | – | – | 0.0017
10 | CNCC#Cc1ccc(OCCCc2sc(N(CCCP(=O)(O)O)c3cc(C)c(Nc4nc5ccccc5s4)nn3)nc2C(=O)O)c(F)c1 [Example 237, 2-[[6-(1,3-Benzothiazol-2-ylamino)-5-methyl-pyridazin-3-yl]-(3-phosphonopropyl)amino]-5-[3-[2-fluoro-4-[3-(methylamino)prop-1-ynyl]phenoxy]propyl]thiazole-4-carboxylic acid] | 750 | – | – | 0.0018
11 | Cc1cc(N(CCCC(=O)O)c2nc(C(=O)O)c(CCCOc3ccc(C#CCN(C)C)cc3F)s2)nnc1Nc1nc2ccccc2s1 [Example 238, 2-({6-[(1,3-Benzothiazol-2-yl)amino]-5-methylpyridazin-3-yl}(3-carboxypropyl)amino)-5-(3-{4-[3-(dimethylamino)prop-1-yn-1-yl]-2-fluorophenoxy}propyl)-1,3-thiazole-4-carboxylic acid] | 149 | – | – | 0.0045
12 | Cc1cc(N(CCCP(=O)(O)O)c2nc(C(=O)O)c(CCCOc3ccc(C#CCN(C)C)cc3F)s2)nnc1Nc1nc2ccccc2s1 [Example 239, 2-({6-[(1,3-Benzothiazol-2-yl)amino]-5-methylpyridazin-3-yl}(3-phosphonopropyl)amino)-5-(3-{4-[3-(dimethylamino)prop-1-yn-1-yl]-2-fluorophenoxy}propyl)-1,3-thiazole-4-carboxylic acid] | 314 | – | – | 0.0027
13 | Cc1cc(N(CCCS(=O)(=O)O)c2nc(C(=O)O)c(CCCOc3ccc(C#CCN(C)C)cc3F)s2)nnc1Nc1nc2ccccc2s1 [Example 240, 2-({6-[(1,3-Benzothiazol-2-yl)amino]-5-methylpyridazin-3-yl}(3-sulfopropyl)amino)-5-(3-{4-[3-(dimethylamino)prop-1-yn-1-yl]-2-fluorophenoxy}propyl)-1,3-thiazole-4-carboxylic acid] | 1320 | – | – | 0.0073
14 | Cc1cc(N(CCCCS(=O)(=O)O)c2nc(C(=O)O)c(CCCOc3ccc(C#CCN(C)C)cc3F)s2)nnc1Nc1nc2ccccc2s1 [Example 241, 2-({6-[(1,3-Benzothiazol-2-yl)amino]-5-methylpyridazin-3-yl}(4-sulfobutyl)amino)-5-(3-{4-[3-(dimethylamino)prop-1-yn-1-yl]-2-fluorophenoxy}propyl)-1,3-thiazole-4-carboxylic acid] | 1190 | – | – | 0.0094
15 | Cc1cc(N(CCCCP(=O)(O)O)c2nc(C(=O)O)c(CCCOc3ccc(C#CCN(C)C)cc3F)s2)nnc1Nc1nc2ccccc2s1 [Example 242, 2-({6-[(1,3-Benzothiazol-2-yl)amino]-5-methylpyridazin-3-yl}(4-phosphonobutyl)amino)-5-(3-{4-[3-(dimethylamino)prop-1-yn-1-yl]-2-fluorophenoxy}propyl)-1,3-thiazole-4-carboxylic acid] | 525 | – | – | 0.0078
16 | Cc1cc(N(CCCCC(=O)O)c2nc(C(=O)O)c(CCCOc3ccc(C#CCN(C)C)cc3F)s2)nnc1Nc1nc2ccccc2s1 [Example 243, 2-({6-[(1,3-Benzothiazol-2-yl)amino]-5-methylpyridazin-3-yl}(4-carboxybutyl)amino)-5-(3-{4-[3-(dimethylamino)prop-1-yn-1-yl]-2-fluorophenoxy}propyl)-1,3-thiazole-4-carboxylic acid] | 112 | – | – | 0.005
17 | Cc1cc(N(C)c2ccc(-c3cnn(CC45CC6(C)CC(C)(C4)CC(OCCNCC[C@H](O)CO)(C6)C5)c3C)c(C(=O)O)n2)nnc1Nc1nc2ccccc2s1 [Example 247, 6-[{6-[(1,3-benzothiazol-2-yl)amino]-5-methylpyridazin-3-yl}(methyl)amino]-3-(1-{[3-(2-{[(3S)-3,4-dihydroxybutyl]amino}ethoxy)-5,7-dimethyladamantan-1-yl]methyl}-5-methyl-1H-pyrazol-4-yl)pyridine-2-carboxylic acid] | 2.81 | – | – | 0.0012
18 | Cc1cc(N(C)c2ccc(-c3cnn(CC45CC6(C)CC(C)(C4)CC(OCCN(C)C)(C6)C5)c3C)c(C(=O)O)n2)nnc1Nc1nc2ccccc2s1 [Example 250, 6-[{6-[(1,3-benzothiazol-2-yl)amino]-5-methylpyridazin-3-yl}(methyl)amino]-3-[1-{{3-[2-(dimethylamino)ethoxy]-5,7-dimethyladamantan-1-yl}methyl)-5-methyl-1H-pyrazol-4-yl]pyridine-2-carboxylic acid] | 0.246 | – | – | 0.0022
